EC50 data for 42 compounds are collected here from patent publication US12162857B2, “Antiviral compounds” (priority 2022, dated 2024).

What is called EC50 is the concentration giving half of the maximal effect.

The test system of the assay is HMPV A2 TN/94-49. The assay can be described thus: HMPV antiviral assay: LLC-MK2 cells, ATP-Lite readout. Format: cell-based. The following applies: LLC-MK2, 168 h, MOI 0.005, 7 days incubation. Here is the method:
In vitro HMPV antiviral activity was evaluated using the clinical isolate A2 strain TN 94-49 and LLC-MK2 cells (ATCC #CCL-7), an immortalized kidney epithelial cell line from Macaca mulatta. Compounds were resuspended in dimethyl sulfoxide (DMSO) at 10 mM, serially diluted and added to a 384-well source plate. Subsequently, the compounds were diluted and transferred onto 384-well assay plates using the Echo-650 automated liquid handling system (Beckman Coulter, Indiana). The test compounds were assessed in duplicate at a top concentration of 2 μM followed by 2.5-fold serial dilutions to give a total of 10 concentration points. DMSO control wells were also included on the assay plates and were either infected or not, acting as positive and negative controls. A2 TN 94-49 virus infections were performed in-suspension with LLC-MK2 cells. The cells were washed twice with PBS and removed from the cell-culture flask with 0.25% trypsin-EDTA (Thermo Fisher Scientific, MA). The trypsin-EDTA was inactivated by resuspending in 2% fetal bovine serum (FBS) and OptiMEM (ThermoFisher Scientific, MA) containing 1% penicillin-streptomycin. Cells were pelleted by centrifuging for 5 minutes at 800 rpm, the supernatant was removed, and cells were re-suspended and washed in PBS plus 100 μg/mL CaCl2). This step was performed twice. Cells were then re-suspended in serum-free (SF)-OptiMEM containing 4 μg/mL TPCK-Trypsin (Sigma Aldrich, MO), 1% penicillin-streptomycin (ThermoFisher Scientific, MA) and 100 μg/mL CaCl2). Cells were counted and seeded at a density of 5,000 cells/well, 12.5 μL/well. Virus infections were done at a multiplicity of infection (MOI) of 0.005 with 12.5 μL added per well. Virus infections were performed in infection media which contained SF-OptiMEM, 100 μg/mL CaCl2) and 1% penicillin-streptomycin. HMPV viral stocks are suspended in infection media+5% glycerol, thus an equal volume of infection media+5% glycerol was added to uninfected wells to equalize the final % glycerol across all wells of the assay plate. The final concentration of TPCK-trypsin was 2 μg/mL. The assay plates were incubated at 37° C., 5% CO2 for 7 days. After 7 days incubation, 12.5 μL of ATP-Lite (PerkinElmer, MA) was added to each well and the raw luminescence values were determined using the Envision 2104 (Perkin Elmer, MA). The average of the raw luminescence values for the cells and virus only positive control wells was subtracted from all conditions tested and the percent cell health was determined by dividing these values by the average of the cells only negative control wells. EC50 values were then calculated by non-linear regression using a four-parameter curve logistic equation. The curve fit model employed was XLFit Dose Response One Site Model 200: y=(A+(B/(1+((x/C)^D)))), where A is the minimum y value, B is the maximum y value, C is the log EC50 value, and D is the slope factor. […] EC50 ranges are as follows: A<1 μM; B>1 μM.

Regarding `CC(C)(O)c1cc([C@@](O)(CNC(=O)c2cc(Cl)c3nn(C4CC4)cc3c2)c2ccccc2)nc(-c2ccc3c(c2Cl)OC(F)(F)O3)c1Cl` [Example 137], the EC50 was more than 1 µM.

`COc1cc(C(=O)NC[C@@](O)(c2cccc(F)c2)c2cc(C(C)(C)O)c(F)c(-c3cccc(Cl)c3Cl)n2)cc2cc(C3CC3)nn12` [Example 101] came in with an EC50 of less than 1 µM.

For `COc1cc(C(=O)NC[C@](O)(c2cc(C(C)(C)F)c(F)c(-c3cc(Cl)c(F)cc3F)n2)C2CC2)cc2cn(C(F)F)nc12` [Example 179], the EC50 was more than 1 µM.

The compound `COc1cc(C(=O)NC[C@@](O)(c2ccccc2)c2cc(N3C(=O)CCC3C(N)=O)cc(-c3cc(Cl)c(F)cc3F)n2)cc2cn(C3CC3)nc12` (stereo partly drawn) [Example 197] gave a concentration giving a half-maximal response (EC50) of more than 1 µM.

Turning to `COc1cc(C(=O)NC[C@@](O)(c2ccccc2)c2cc(C(C)(C)O)c(F)c(-c3ccc(F)c(Cl)c3Cl)n2)cc2cn(C(F)F)nc12` [Example 70], the EC50 was less than 1 µM.

Turning to `COc1cc(C(=O)NC[C@@](O)(c2ccccc2)c2cc(C(C)(C)O)c(F)c(-c3cc(F)ccc3F)n2)cc2cn(C3CC3)nc12` [Example 83], the EC50 was more than 1 µM.

`COc1cc(C(=O)NC[C@@](O)(c2ccccc2)c2cc(C(C)(C)O)cc(-c3ccc4c(c3Cl)OC(F)(F)O4)n2)cc2sc(C)nc12` [Example 157] returned an EC50 of less than 1 µM.

Take `COc1cc(C(=O)NC[C@@](O)(c2ccccc2)c2cc(C(C)(C)O)cc(-c3ccc(F)c(Cl)c3Cl)n2)cc2cn(C3CC3)nc12` [Example 152]: the EC50 is less than 1 µM.

Consider `COc1cc(C(=O)NC[C@@](O)(c2cccc(F)c2)c2cc(C(C)(C)O)c(F)c(-c3ccc(F)c(Cl)c3Cl)n2)cc2sc(C)nc12` [Example 107], for which the 50% effective concentration (EC50) was less than 1 µM.

Compound `COc1cc(C(=O)NC[C@@](O)(c2cccc(F)c2)c2cc(C(C)(C)O)c(F)c(-c3ccc4c(c3Cl)OC(F)(F)O4)n2)cc2cc(C3CC3)nn12` [Example 112] showed an EC50 of less than 1 µM.

On to `CC(C)(O)c1cc([C@@](O)(CNC(=O)c2cc(OC3CC3)c3nn(C4CC4)cc3c2)C2CC2)nc(-c2cc(Cl)c(F)cc2F)c1F` [Example 55], for which the EC50 is less than 1 µM.

Compound `COc1cc(C(=O)NC[C@](O)(c2cc(C3(O)COC3)c(F)c(-c3ccc(F)cc3)n2)C2CC2)cc2cn(C3CC3)nc12` [Example 166] registered an EC50 of more than 1 µM.

For `COc1cc(C(=O)NC[C@@](O)(c2cccc(F)c2)c2cc(C(C)(C)O)c(F)c(-c3cc(Cl)c(F)cc3F)n2)cc2cc(C3CC3)nn12` [Example 93], the EC50 was less than 1 µM.

For `COc1cc(C(=O)NC[C@@](O)(c2ccccc2)c2cc(C(C)(C)C(N)=O)c(F)c(-c3cc(Cl)c(F)cc3F)n2)cc2cn(C3CC3)nc12` [Example 160], the EC50 is less than 1 µM.

`COc1cc(C(=O)NC[C@@](O)(c2ccccc2)c2cc(C(C)(C)O)c(F)c(-c3cc(Cl)c(F)cc3F)n2)cc2cn(C3CC3)nc12` [Example 60] came in with an EC50 of less than 1 µM.

With `COc1cc(C(=O)NC[C@@](O)(c2cccc(F)c2)c2cc(C(C)(C)O)c(F)c(-c3cccc(Cl)c3Cl)n2)cc2sc(C)nc12` [Example 102], the EC50 was less than 1 µM.

In the case of `COc1cc(C(=O)NC[C@@](O)(c2ccccc2)c2cc(C(C)(C)O)c(F)c(-c3ccc(F)c(F)c3F)n2)cc2cn(C3CC3)nc12` [Example 84], the EC50 was less than 1 µM.

For the compound `COc1cc(C(=O)NC[C@@](O)(c2cccc(F)c2)c2cc(C(C)(C)O)c(F)c(-c3cc(Cl)c(F)cc3F)n2)cc2cn(C3CC3)nc12` [Example 90], the EC50 was less than 1 µM.

For the compound `COc1cc(C(=O)NC[C@@](O)(c2ccccc2)c2cc(C(=O)Nc3ncco3)c(F)c(-c3cc(Cl)c(F)cc3F)n2)cc2cn(C3CC3)nc12` [Example 191], the EC50 was more than 1 µM.

`COc1cc(C(=O)NC[C@](O)(c2cc(C(C)(C)O)c(F)c(-c3cc(Cl)c(F)cc3F)n2)c2nccs2)cc2cn(C3CC3)nc12` [Example 58] registered an EC50 of less than 1 µM.

Compound `CC(C)(O)c1cc([C@@](O)(CNC(=O)c2cc(Cl)c3nn(C4CC4)cc3c2)c2cccc(F)c2)nc(-c2cc(F)c(F)cc2F)c1F` [Example 97] registered an EC50 of less than 1 µM.

With `COc1cc(C(=O)NC[C@@](O)(c2ccccc2)c2cc(N3CC[C@H](O)C3)cc(-c3cc(Cl)c(F)cc3F)n2)cc2cn(C3CC3)nc12` [Example 198], the EC50 is more than 1 µM.

As to `COc1cc(C(=O)NC[C@](O)(c2cc(C(C)(C)O)c(F)c(-c3ccc(F)c(Cl)c3F)n2)C2CC2)cc2cn(C3CC3)nc12` [Example 119], the EC50 was less than 1 µM.

In turn, `COc1cc(C(=O)NC[C@@](O)(c2cccc(F)c2)c2cc(C(C)(C)O)c(F)c(-c3ccc4c(c3Cl)OC(F)(F)O4)n2)cc2cn(C3CC3)nc12` [Example 109] had an EC50 of less than 1 µM.

On to `[2H]C([2H])([2H])C(O)(c1cc([C@@](O)(CNC(=O)c2cc(OC)c3nn(C(F)F)cc3c2)C2CC2)nc(-c2cc(Cl)c(F)cc2F)c1F)C([2H])([2H])[2H]` [Example 188], for which the EC50 was less than 1 µM.

`COc1cc(C(=O)NC[C@@](O)(c2ccccc2)c2cc(C(C)(C)O)cc(-c3cccc(Cl)c3Cl)n2)cc2sc(C)nc12` [Example 147] had an EC50 of less than 1 µM.

`COc1cc(C(=O)NC[C@](O)(c2cc(C(C)(C)O)c(F)c(-c3cc(Cl)c(F)cc3F)n2)C2CC2)cc2cn(C3(F)CC3)nc12` [Example 53] returned an EC50 of less than 1 µM.

The compound `COc1cc(C(=O)NC[C@@](O)(c2ccccc2)c2cc(C(=O)NCC(C)(C)O)c(F)c(-c3cc(Cl)c(F)cc3F)n2)cc2cn(C3CC3)nc12` [Example 193] had an EC50 of more than 1 µM.

`COc1cc(C(=O)NC[C@@](O)(c2ccccc2)c2cc(N3C(=O)CC[C@H]3C(N)=O)cc(-c3cc(Cl)c(F)cc3F)n2)cc2cn(C3CC3)nc12` [Example 196] yielded an EC50 of more than 1 µM.

`CC(C)(O)c1cc([C@@](O)(CNC(=O)c2cc(OC3CC3)c3nn(C4CC4)cc3c2)c2ccccc2)nc(-c2cc(Cl)c(F)cc2F)c1F` [Example 63] returned an EC50 of less than 1 µM.

As for `COc1cc(C(=O)NC[C@@](O)(c2ccccc2)c2nc(-c3cc(Cl)c(F)cc3F)c(F)c(C(C)(C)O)c2F)cc2cc(C3CC3)nn12` [Example 129], the EC50 was less than 1 µM.

On to `COc1cc(C(=O)NC[C@@](O)(c2cccc(F)c2)c2cc(C(C)(C)O)c(F)c(-c3cc(F)c(F)cc3F)n2)cc2cn(C3CC3)nc12` [Example 96], for which the EC50 is less than 1 µM.

As to `COc1cc(C(=O)NC[C@](O)(c2ccc(F)c(-c3cc(Cl)c(F)cc3F)n2)C2CC2)cc2cc(C)cnc12` [Example 175], the concentration giving a half-maximal response (EC50) was more than 1 µM.

In the case of `COc1cc(C(=O)NC[C@@](O)(c2ccccc2)c2cc(C(C)(C)O)c(F)c(-c3ccc4c(c3Cl)OC(F)(F)O4)n2)cc2sc(C)nc12` [Example 73], the EC50 was less than 1 µM.

Take `COc1cc(C(=O)NC[C@@](O)(c2ccccc2)c2cc(C(=O)Nc3ncc[nH]3)c(F)c(-c3cc(Cl)c(F)cc3F)n2)cc2cn(C3CC3)nc12` [Example 190]: the EC50 is more than 1 µM.

`COc1cc(C(=O)NC[C@@](O)(c2cccc(F)c2)c2cc(C(C)(C)O)c(F)c(-c3cc(F)c(F)cc3F)n2)cc2cc(C3CC3)nn12` [Example 95] gave a half-maximal effective concentration (EC50) of less than 1 µM.

Turning to `CC(C)(O)c1cc([C@@](O)(CNC(=O)c2cc(OC3CC3)c3nn(C4CC4)cc3c2)C2CC2)nc(-c2ccc(F)c(Cl)c2F)c1F` [Example 121], the EC50 was less than 1 µM.

For `COc1cc(C(=O)NC[C@](O)(c2cc(C3(O)COC3)c(F)c(-c3cc(Cl)c(F)cc3F)n2)C2CC2)cc2cn(C3(F)CC3)nc12` [Example 168], the EC50 is more than 1 µM.

In turn, `COc1cc(C(=O)NC[C@@](O)(c2ccccc2)c2cc(C(C)(C)O)c(F)c(-c3ccc4c(c3Cl)OC(F)(F)O4)n2)cc2cc(C3CC3)nn12` [Example 72] had an EC50 of less than 1 µM.

Turning to `COc1cc(C(=O)NC[C@@](O)(c2ccccc2)c2cc(C(C)(C)O)c(Cl)c(-c3cccc(Cl)c3Cl)n2)cc2cn(C(F)F)nc12` [Example 142], the EC50 was more than 1 µM.

With `COc1cc(C(=O)NC[C@@](O)(c2ccccc2)c2cc(C(C)(C)O)cc(-c3cccc(Cl)c3Cl)n2)cc2cn(C3CC3)nc12` [Example 148], the half-maximal effective concentration (EC50) is less than 1 µM.

On to `CC(C)(O)c1cc([C@@](O)(CNC(=O)c2cc(Cl)c3nn(C4CC4)cc3c2)c2ccccc2)nc(-c2ccc3c(c2)OC(F)(F)O3)c1F` [Example 77], for which the EC50 is more than 1 µM.
